Assays:
Assay in all cases: Test D controlled growth environment herbicide test, pre- and postemergence
Format in all cases: in vivo
[1] = test system: wheat, winter (winter wheat, Triticum aestivum)
Method in brief: (§1)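 Pre-emergence: seeds sown in silt loam soil were sprayed with compound in a non-phytotoxic solvent mix containing surfactant. Post-emergence: plants at 2 to 18 cm (1- to 4-leaf stage) in peat moss/vermiculite medium got the same formulation. Visual 0–100 rating versus controls after 14 to 21 d.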

[2] = test system: deadnettle (henbit deadnettle, Lamium amplexicaule)
Method in brief: as §1

[3] = test system: lambsquarters (Chenopodium album)
Method in brief: as §1

[4] = test system: galium (catchweed bedstraw, Galium aparine)
Method in brief: as §1

[5] = test system: pigweed (Amaranthus retroflexus)
Method in brief: as §1

[6] = test system: barley, winter (winter barley, Hordeum vulgare)
Method in brief: as §1

[7] = test system: chickweed (common chickweed, Stellaria media)
Method in brief: as §1

[8] = test system: blackgrass (Alopecurus myosuroides)
Method in brief: as §1

[9] = test system: foxtail, green (green foxtail, Setaria viridis)
Method in brief: as §1

[10] = test system: windgrass (Apera spica-venti)
Method in brief: as §1

[11] = test system: ryegrass, Italian (Italian ryegrass, Lolium multiflorum)
Method in brief: as §1

[12] = test system: speedwell (bird's-eye speedwell, Veronica persica)
Method in brief: as §1

kochia (Kochia scoparia) = test system: kochia (Kochia scoparia)
Method in brief: as §1

[13] = Postemergence, 31 g ai/ha, scale 0 to 100 (0 no effect, 100 complete control)
[14] = Postemergence, 125 g ai/ha, visual rating on scale 0 (no effect) to 100 (complete control), 14 to 21 d
[15] = Postemergence, 250 g ai/ha, scale 0 to 100 (0 no effect, 100 complete control)
[16] = Preemergence, 125 g ai/ha, scale 0 to 100 (0 no effect, 100 complete control)
[17] = Preemergence, 250 g ai/ha, scale 0 to 100 (0 no effect, 100 complete control)
[18] = postemergence, 62 g ai/ha, scale 0 to 100, 0 no effect, 100 complete control
[19] = Preemergence, 62 g ai/ha, scale 0 to 100 (0 no effect, 100 complete control)

CC(=O)Oc1c(C)nn(C)c(=O)c1-c1c(C)cc(C)c2ccccc12 [Compound 153]
Wheat, Winter plant response rating [1, 13]: 10
Plant response rating, Wheat, Winter [1, 14]: 25
Plant response rating, Wheat, Winter [1, 15]: 35
Plant response rating (scale of 0 to 100), Wheat, Winter ([1]; Preemergence, 31 g ai/ha): 5
Plant response rating (scale of 0 to 100), Wheat, Winter ([1]; Preemergence, 62 g ai/ha): 20
Plant response rating, Wheat, Winter [1, 16]: 45
Plant response rating, Wheat, Winter [1, 17]: 50
Plant response rating, Wheat, Winter [1, 18]: 15
Deadnettle plant response rating [2, 13]: 70
Plant response rating, Deadnettle [2, 14]: 80
Plant response rating, Deadnettle [2, 15]: 90
Plant response rating (scale of 0 to 100), Deadnettle ([2]; Preemergence, 31 g ai/ha): 98
Plant response rating (scale of 0 to 100), Deadnettle ([2]; Preemergence, 62 g ai/ha): 100
Plant response rating, Deadnettle [2, 16]: 100
Plant response rating, Deadnettle [2, 17]: 100
Plant response rating, Deadnettle [2, 18]: 75
Lambsquarters plant response rating [3, 13]: 75
Plant response rating, Lambsquarters [3, 14]: 65
Plant response rating, Lambsquarters [3, 15]: 75
Plant response rating (scale of 0 to 100), Lambsquarters ([3]; Preemergence, 31 g ai/ha): 70
Plant response rating (scale of 0 to 100), Lambsquarters ([3]; Preemergence, 62 g ai/ha): 85
Plant response rating, Lambsquarters [3, 16]: 100
Plant response rating, Lambsquarters [3, 17]: 100
Plant response rating, Lambsquarters [3, 18]: 65
Galium plant response rating [4, 13]: 100
Plant response rating, Galium [4, 14]: 100
Plant response rating, Galium [4, 15]: 100
Plant response rating (scale of 0 to 100), Galium ([4]; Preemergence, 31 g ai/ha): 85
Plant response rating (scale of 0 to 100), Galium ([4]; Preemergence, 62 g ai/ha): 95
Plant response rating, Galium [4, 16]: 95
Plant response rating, Galium [4, 17]: 98
Plant response rating, Galium [4, 18]: 100
Pigweed plant response rating [5, 13]: 80
Plant response rating, Pigweed [5, 14]: 80
Plant response rating, Pigweed [5, 15]: 85
Plant response rating (scale of 0 to 100), Pigweed ([5]; Preemergence, 31 g ai/ha): 100
Plant response rating (scale of 0 to 100), Pigweed ([5]; Preemergence, 62 g ai/ha): 100
Plant response rating, Pigweed [5, 16]: 100
Plant response rating, Pigweed [5, 17]: 100
Plant response rating, Pigweed [5, 18]: 75
Barley, Winter plant response rating [6, 13]: 0
Plant response rating, Barley, Winter [6, 14]: 10
Plant response rating, Barley, Winter [6, 15]: 25
Plant response rating (scale of 0 to 100), Barley, Winter ([6]; Preemergence, 31 g ai/ha): 0
Plant response rating, Barley, Winter [6, 19]: 10
Plant response rating, Barley, Winter [6, 16]: 25
Plant response rating, Barley, Winter [6, 17]: 40
Plant response rating, Barley, Winter [6, 18]: 5
Chickweed plant response rating [7, 13]: 80
Plant response rating, Chickweed [7, 14]: 85
Plant response rating, Chickweed [7, 15]: 100
Plant response rating (scale of 0 to 100), Chickweed ([7]; Preemergence, 31 g ai/ha): 98
Plant response rating (scale of 0 to 100), Chickweed ([7]; Preemergence, 62 g ai/ha): 100
Plant response rating, Chickweed [7, 16]: 100
Plant response rating, Chickweed [7, 17]: 100
Plant response rating, Chickweed [7, 18]: 85
Blackgrass plant response rating [8, 13]: 65
Plant response rating, Blackgrass [8, 14]: 75
Plant response rating, Blackgrass [8, 15]: 80
Plant response rating (scale of 0 to 100), Blackgrass ([8]; Preemergence, 31 g ai/ha): 75
Plant response rating, Blackgrass [8, 19]: 80
Plant response rating, Blackgrass [8, 16]: 85
Plant response rating, Blackgrass [8, 17]: 95
Plant response rating, Blackgrass [8, 18]: 70
Foxtail, Green plant response rating [9, 13]: 80
Plant response rating, Foxtail, Green [9, 14]: 85
Plant response rating, Foxtail, Green [9, 15]: 85
Plant response rating (scale of 0 to 100), Foxtail, Green ([9]; Preemergence, 31 g ai/ha): 75
Plant response rating (scale of 0 to 100), Foxtail, Green ([9]; Preemergence, 62 g ai/ha): 75
Plant response rating, Foxtail, Green [9, 16]: 100
Plant response rating, Foxtail, Green [9, 17]: 100
Plant response rating, Foxtail, Green [9, 18]: 80
Windgrass plant response rating [10, 13]: 25
Plant response rating, Windgrass [10, 14]: 65
Plant response rating, Windgrass [10, 15]: 75
Plant response rating (scale of 0 to 100), Windgrass ([10]; Preemergence, 31 g ai/ha): 75
Plant response rating (scale of 0 to 100), Windgrass ([10]; Preemergence, 62 g ai/ha): 80
Plant response rating, Windgrass [10, 16]: 80
Plant response rating, Windgrass [10, 17]: 95
Plant response rating, Windgrass [10, 18]: 30
Ryegrass, Italian plant response rating [11, 13]: 80
Plant response rating, Ryegrass, Italian [11, 14]: 90
Plant response rating, Ryegrass, Italian [11, 15]: 90
Plant response rating (scale of 0 to 100), Ryegrass, Italian ([11]; Preemergence, 31 g ai/ha): 100
Plant response rating (scale of 0 to 100), Ryegrass, Italian ([11]; Preemergence, 62 g ai/ha): 100
Plant response rating, Ryegrass, Italian [11, 16]: 100
Plant response rating, Ryegrass, Italian [11, 17]: 100
Plant response rating, Ryegrass, Italian [11, 18]: 90
Speedwell plant response rating [12, 13]: 75
Plant response rating, Speedwell [12, 14]: 90
Plant response rating, Speedwell [12, 15]: 100
Plant response rating (scale of 0 to 100), Speedwell ([12]; Preemergence, 31 g ai/ha): 100
Plant response rating (scale of 0 to 100), Speedwell ([12]; Preemergence, 62 g ai/ha): 100
Plant response rating, Speedwell [12, 16]: 100
Plant response rating, Speedwell [12, 17]: 100
Plant response rating, Speedwell [12, 18]: 75
Kochia plant response rating (kochia (Kochia scoparia); [13]): 20
Plant response rating, Kochia (kochia (Kochia scoparia); [14]): 30
Plant response rating, Kochia (kochia (Kochia scoparia); [15]): 35
Plant response rating (scale of 0 to 100), Kochia (kochia (Kochia scoparia); Preemergence, 31 g ai/ha): 20
Plant response rating (scale of 0 to 100), Kochia (kochia (Kochia scoparia); Preemergence, 62 g ai/ha): 50
Plant response rating, Kochia (kochia (Kochia scoparia); [16]): 25
Plant response rating, Kochia (kochia (Kochia scoparia); [17]): 70
Plant response rating, Kochia (kochia (Kochia scoparia); [18]): 15
